Measurements published in PMC10975828, “Screening for Active Compounds of Acorus calamus against SARS-CoV-2 Viral Protease and Mechanism Prediction” (Pharmaceuticals, 2024).
Where two headings read alike, the source gives them in different places.

Tests used:
SARS-CoV-2 Mpro = SARS-CoV-2 Mpro (Severe acute respiratory syndrome coronavirus 2, UniProt P0DTD1); assay: SARS-CoV-2 Mpro inhibition assay (fluorescence, 96-well); assay type: biochemical; settings: for percent inhibition at 5 µM: read-out: Inhibition at 5 μM (%); for IC50: Mpro 1 µM, inhibitor 0–20 µM, substrate 20 µM; for enzyme activity: at a concentration of 5 μM
SARS-CoV-2 PLpro = SARS-CoV-2 PLpro (Severe acute respiratory syndrome coronavirus 2, UniProt P0DTD1); assay: SARS-CoV-2 PLpro inhibition assay (fluorescence, 96-well); assay type: biochemical; settings: for percent inhibition of PLpro at 5 µM: read-out: Inhibition at 5 μM (%); for enzyme activity: 5 μM screening
PC12 cell = test system: PC12 cell; set-up: method as in PMID 28695650; settings: previous studies; cited from earlier work
[1] = PLpro 1 µM, inhibitor 0–20 µM, substrate 20 µM, read-out: IC50
[2] = Mpro, inhibitor 5 μM, substrate 1 μM, triplicate, 25 °C
[3] = PLpro, inhibitor 5 μM, substrate 1 μM, triplicate, 25 °C

Row | Compound | percent inhibition at 5 µM (SARS-CoV-2 Mpro) [%] | percent inhibition of PLpro at 5 µM (SARS-CoV-2 PLpro) [%] | percent inhibition at 5 µM (SARS-CoV-2 Mpro; [2]) [%] | percent inhibition of PLpro at 5 µM (SARS-CoV-2 PLpro; [3]) [%] | further results
1 | CC1(O)CCC2C(C3C1CCC3(C)O)C2(C)C (single isomer, unassigned; (-)) [Compound 5, (-)-alloaromadendrane-3β,9β-diol] | 78.33 ± 0.25 | 14.4 ± 0.88 |  |  | 
2 | CC(C)C1CCC(C)(O)C2CCC(C)(O)C2C1=O [1R,5R,7S-guaiane-4R,10R-diol-6-one] |  |  |  |  | IC50 (SARS-CoV-2 PLpro; [1]): 0.386 ± 0.118 µM
3 | CC(C)C1CCC(C)(O)C2CCC(C)(O)C2C1=O [Compound 1, 1R,5R,7S-guaiane-4R,10R-diol-6-one] |  |  | 83.61 ± 0.01 | 6.41 ± 0.43 | enzyme activity (SARS-CoV-2 PLpro; PLpro): below 10%
4 | CC1=CCC(C(C)C)C(O)C2C1CCC2(C)O (stereo not drawn) [Compound 2, 4β,6β-dihydroxy-1α,5β(H)-guai-9-ene] | 85.9 ± 0.61 | 14 ± 1.95 |  |  | 
5 | C=C1CCC(C(C)C)C(O)C2C1CCC2(C)O (stereo not drawn) [Compound 3, 4β,6β-dihydroxy-1α,5β(H)-guai-10(14)-ene] | 74.7 ± 0.05 | 11.3 ± 0.55 |  |  | 
6 | CC(C)C1CCC(C)(O)C2CCC(C)(O)C2C1O (stereo not shown) [Compound 4, teuclatriol] | 87.19 ± 0.31 | 11.8 ± 1.99 |  |  | 
7 | C=C1CC[C@@H]2[C@@](O)(C1)[C@H](C(C)C)CC[C@@]2(C)O [Compound 6, isocalamendiol] |  |  | 80.31 ± 0.79 | 6.89 ± 1.65 | IC50 (SARS-CoV-2 PLpro; [1]): 1.67 ± 0.496 µM; enzyme activity (SARS-CoV-2 PLpro; PLpro): below 10%
8 | C=C1CC[C@@H]2[C@@](O)(C1)[C@H](C(C)C)CC[C@]2(C)O [Compound 7, calamendiol] |  |  | 78.58 ± 0.67 | 20.1 ± 2.96 | 
9 | C=C1CC[C@@H]2[C@](C)(O)[C@H](O)C[C@H](C(C)C)[C@@]2(O)C1 [Compound 9, calamentriol A] | 82.9 ± 7.31 | 22.3 ± 4.83 |  |  | 
10 | CC1=CC[C@H]2[C@](O)(C1)[C@@H](C(C)C)CC[C@@]2(C)O [Compound 10, 1β,7β(H)-3-cadinadiene-6α,10α-diol] | 85.6 ± 0.88 | 26.6 ± 3.38 |  |  | 
11 | CC(C)[C@@H]1CC[C@](C)(O)[C@@H]2CC[C@](C)(O)C[C@]21O [Compound 11, calamentriol B] | 80.5 ± 4.82 | 38.4 ± 7.04 |  |  | 
12 | CC(C)[C@H]1CC[C@](C)(O)[C@H]2CC[C@@](O)(CO)C[C@]12O [Compound 12, calamentriol C] | 70.9 ± 1.17 | 25.8 ± 2.25 |  |  | 
13 | CC(C)C1CCC(C)(O)C2=C1C(=O)C(C)(O)CC2O (stereo not shown) [Compound 13, menecubebane B] |  |  | 41.1 ± 8.77 | 24.9 ± 4.91 | IC50 (SARS-CoV-2 Mpro): 1.72 ± 0.394 µM; enzyme activity (SARS-CoV-2 Mpro; Mpro): less than 50%; IC50 (SARS-CoV-2 PLpro; [1]): 2.53 ± 0.885 µM
14 | CC1=C[C@H]2[C@@H](C(C)C)CC[C@@](C)(O)[C@]2(O)[C@@H](O)C1 [Compound 14, calamentriol D] | 81.9 ± 1.31 | 25.4 ± 1.43 |  |  | 
15 | CC(C)[C@@H]1CCC(=O)C2=C1[C@H](O)[C@](C)(O)CC2 [Compound 15, oxyphyllenodiols A] | 79.3 ± 10.4 | 35.3 ± 2.35 |  |  | 
16 | CC(C)C1=CC[C@@]2(C)[C@H](O)CC[C@](C)(O)[C@@H]2C1 [Compound 16, oplodiol] | 78.2 ± 12.9 | 33.6 ± 2.46 |  |  | 
17 | CC(C)C1CCC2(C)C(O)CCC(C)(O)C2C1O (stereo not shown) [Compound 17, ananosmin] | 74.6 ± 5.21 | 29.8 ± 1.54 |  |  | 
18 | CC(=O)CC[C@@]12CC(=O)O[C@]1(C(C)C)C(=O)C[C@@H]2C [Compound 18, neo-acorane A] |  |  | 31 ± 1.26 | 31.7 ± 8.07 | IC50 (SARS-CoV-2 Mpro): 0.63 ± 0.364 µM; enzyme activity (SARS-CoV-2 Mpro; Mpro): less than 50%; IC50 (SARS-CoV-2 PLpro; [1]): 1.89 ± 0.375 µM
19 | CC(C)C(=O)[C@@]1([C@H](C)CC(=O)O)CC[C@@H](C)C(=O)C1 [Compound 19, acoric acid] |  |  | 75.55 ± 0.24 | 7.9 ± 1.94 | IC50 (SARS-CoV-2 PLpro; [1]): 1.45 ± 0.429 µM; enzyme activity (SARS-CoV-2 PLpro; PLpro): below 10%
20 | CC1CC(=O)C(O)(C(C)C)C12CCC(C)(O)C(=O)C2 (stereo not shown) [Compound 20, calamusin D] | 79.7 ± 8.49 | 22.2 ± 3.58 |  |  | 
21 | CC(=O)C1CCC2C1C(C(C)C)CCC2(C)O (stereo not shown) [Compound 21, oplopanone A] | 83.3 ± 4.06 | 33.9 ± 5.49 |  |  | 
22 | CC(C)(O)C[C@H]1CC[C@@]2(C)[C@H](O)CC[C@](C)(O)[C@H]12 [Compound 22, bullatantriol] |  |  | 82.8 ± 1.58 | 10.6 ± 2.59 | IC50 (SARS-CoV-2 PLpro; [1]): 1.26 ± 0.321 µM; enzyme activity (SARS-CoV-2 PLpro; PLpro): below 10%
23 | COc1cc2ccnc3c2c(c1O)-c1c-3cccc(OC)c1=O [Compound 23, neo-tatarine] |  |  | 81.5 ± 3.65 | 6.71 ± 3.23 | IC50 (SARS-CoV-2 PLpro; [1]): 0.743 ± 0.187 µM; enzyme activity (SARS-CoV-2 PLpro; PLpro): below 10%; inhibitory effect on Aβ25-35-induced PC12 cell death (PC12 cell): significant inhibitory effect
24 | COc1cc(OC)c(OC)cc1C=O [Compound 24, 2,4,5-trimethoxybenzaldehyde] | 68.9 ± 0.71 | 9.54 ± 0.61 |  |  | IC50 (SARS-CoV-2 PLpro): 3.92 ± 1.29 µM; enzyme activity (SARS-CoV-2 PLpro; PLpro): below 10%
25 | calamusin H [Compound 8] |  |  |  | 14.2 ± 0.93 | percent inhibition (SARS-CoV-2 Mpro; [2]): 81.7 ± 6.15%
